The source of these data is paper PMC8167799, “Discovery and Characterization of the Biflavones From Ginkgo biloba as Highly Specific and Potent Inhibitors Against Human Carboxylesterase 2” (Frontiers in Pharmacology, 2021).

The test concerns the target T1, CES2 (Homo sapiens, UniProt O00748).
T1 construct: tissue Bioreclamation IVT; […]
T1 sequence (O00748 27-559): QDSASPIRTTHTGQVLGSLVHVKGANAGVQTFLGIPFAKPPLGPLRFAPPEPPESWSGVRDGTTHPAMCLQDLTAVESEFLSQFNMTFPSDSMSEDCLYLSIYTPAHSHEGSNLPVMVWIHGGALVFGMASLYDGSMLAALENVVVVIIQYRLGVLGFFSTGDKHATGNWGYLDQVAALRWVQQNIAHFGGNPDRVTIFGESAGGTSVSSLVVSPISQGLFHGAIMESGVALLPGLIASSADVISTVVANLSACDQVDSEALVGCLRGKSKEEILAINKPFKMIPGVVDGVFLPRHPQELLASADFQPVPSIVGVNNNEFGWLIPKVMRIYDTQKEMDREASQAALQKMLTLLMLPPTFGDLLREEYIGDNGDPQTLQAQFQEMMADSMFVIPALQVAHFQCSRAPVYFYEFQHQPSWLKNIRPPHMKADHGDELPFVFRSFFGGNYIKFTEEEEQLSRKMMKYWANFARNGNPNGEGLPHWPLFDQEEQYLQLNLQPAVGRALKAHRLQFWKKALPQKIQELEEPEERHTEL
Kind of test: Inhibition of CES2-catalyzed FD hydrolysis in HLMs. The conditions noted are these: FD as probe substrate, logarithm of IC50 in nM. It is filed as biochemical. As to the method: The incubation system contains following components (total volume 200 μL): 2 μL DMSO/inhibitor, 2 μL HLMs (2 μg/ml, final concentration), […] buffer PBS (pH = =7.4).

Take Quinatic acid: the “CES2 lg (IC50/nM)” value is listed as 3.72 ± 0.10.
